Test results published in ChEMBL document CHEMBL4043066, “Drug Discovery Targeting Bromodomain-Containing Protein 4” (J Med Chem, 2017).
Values belong to the compound of their own block, whether it stands above or below them.

What was measured:
MV4-11 [1] = test: Antiproliferative activity against human MV4-11 cells after 72 hrs by alamarBlue assay; format: functional, cell-based; details: MV4-11, 72 h
[2] = molecular target: T1, Bromodomain-containing protein 4 (Homo sapiens, UniProt O60885); test: Inhibition of BRD4 bromodomain 1 (unknown origin) using biotinylated substrate after 1 hr by AlphaLisa assay
MX1 [3] = test: Antitumor activity against human MX1 cells xenografted subcutaneously in SCID mouse assessed as tumor growth inhibition at 100 mg/kg, po after day 17 relative to control; format: functional; details: MX1, 408 h, read-out: TGI
[4] = molecular target: T1, Bromodomain-containing protein 4; test: Inhibition of His-tagged BRD4 (44 to 477 residues) (unknown origin) using acetyl-histone H4 as substrate after 35 mins by TR-FRET assay
MV4-11 [5] = test: Growth inhibition of human MV4-11 cells after 4 days by CellTiter-Glo assay; format: functional; details: MV4-11, 96 h
[6] = molecular target: T1, Bromodomain-containing protein 4; test: Inhibition of recombinant human N-terminal His6-tagged BRD4 bromodomain 1 expressed in Escherichia coli BL21(DE3) using biotinylated histone peptide as substrate after 60 mins by TR-FRET assay
[7] = Antitumor activity against human JJN3R cells xenografted subcutaneously in mouse assessed as tumor growth inhibition at 1 mg/kg, po relative to control; format: functional; details: JJN-3R, read-out: TGI
[8] = molecular target: T1, Bromodomain-containing protein 4; test: Inhibition of GST-tagged BRD4 bromodomain 1 (44 to 168 residues) (unknown origin) using biotinylated acetyl-histone H4 peptide as substrate after 30 mins in dark by AlphaScreen assay
[9] = Metabolic stability in CD1 mouse liver microsomes assessed as compound remaining at 1 uM after 30 mins in presence of NADPH by LC/MS analysis; format: ADME, microsome; details: read-out: Stability
[10] = Metabolic stability in human liver microsomes assessed as compound remaining at 1 uM after 30 mins in presence of NADPH by LC/MS analysis; format: ADME, microsome; details: read-out: Stability
[11] = molecular target: T1, Bromodomain-containing protein 4; test: Inhibition of His-tagged BRD4 bromodomain 1 (K57 to E168 residues) (unknown origin) after 1 hr by TR-FRET assay
MX1 [12] = test: Antiproliferative activity against human MX1 cells incubated for >= 72 hrs by CellTiter-Glo assay; format: functional, cell-based; details: MX1, 72 h
MT4 = test: Antiproliferative activity against human MT4 cells after 5 days by CellTiter-Glo assay; format: functional; details: MT4, 120 h
MV4-11 [13] = test: Downregulation of BRD4 in human MV4-11 cells at 100 nM after 18 hrs by immunoblot analysis relative to control; format: functional
MX1 [14] = test: Antiproliferative activity against human MX1 cells after 72 hrs by CellTiter-Glo assay; format: functional, cell-based; details: MX1, 72 h
[15] = molecular target: T1, Bromodomain-containing protein 4; test: Inhibition of recombinant His-tagged BRD4 (unknown origin) using biotinylated acetyl-histone H4 as substrate by AlphaLisa assay
Mus musculus = organism: Mus musculus; test: Antiinflammatory activity in CD1 mouse assessed as inhibition of LPS-induced IL-6 production pretreated for 1 hr followed by LPS stimulation after 2 hrs by immunoassay relative to control; format: functional
NCI-H187 = test: Antitumor activity against human NCI-H187 cells xenografted subcutaneously in mouse assessed as tumor growth inhibition at 5 mg/kg, po relative to control; format: functional; details: read-out: TGI
[16] = molecular target: Bromodomain-containing protein 4 (Homo sapiens, UniProt O60885, Y390A); test: Inhibition of recombinant human N-terminal His6-tagged BRD4 bromodomain 2 (1 to 477 residues) Y390A mutant after 30 mins in dark by TR-FRET assay
[17] = test system: Bromodomain-containing protein 4 (Homo sapiens), O60885 [UNDEFINED MUTATION]; test: Selectivity ratio of IC50 for recombinant human N-terminal His6-tagged BRD4 bromodomain 1 (1 to 477 residues) Y97A mutant to IC50 for recombinant human N-terminal His6-tagged BRD4 bromodomain 2 (1 to 477 residues) Y390A mutant
MV4-11 [18] = test: Antiproliferative activity against human MV4-11 cells; format: functional, cell-based
[19] = molecular target: T1, Bromodomain-containing protein 4; test: Inhibition of His-tagged BRD4 (unknown origin) using acetyl-histone H4 as substrate after 35 mins by TR-FRET assay
CREB-binding protein = CREB-binding protein (Homo sapiens, UniProt Q92793); test: Inhibition of His-tagged CREBP (unknown origin) using acetyl-histone H4 as substrate after 35 mins by AlphaScreen assay
MV4-11 [20] = test: Antiproliferative activity against human MV4-11 cells after 4 days by CellTiter-Glo assay; format: functional, cell-based; details: MV4-11, 96 h
[21] = molecular target: T1, Bromodomain-containing protein 4; test: Inhibition of GST-tagged BRD4 (unknown origin) using biotinylated acetyl-histone H4 peptide as substrate after 30 mins by AlphaScreen assay

Chain of CREB-binding protein (Q92793 whole entry): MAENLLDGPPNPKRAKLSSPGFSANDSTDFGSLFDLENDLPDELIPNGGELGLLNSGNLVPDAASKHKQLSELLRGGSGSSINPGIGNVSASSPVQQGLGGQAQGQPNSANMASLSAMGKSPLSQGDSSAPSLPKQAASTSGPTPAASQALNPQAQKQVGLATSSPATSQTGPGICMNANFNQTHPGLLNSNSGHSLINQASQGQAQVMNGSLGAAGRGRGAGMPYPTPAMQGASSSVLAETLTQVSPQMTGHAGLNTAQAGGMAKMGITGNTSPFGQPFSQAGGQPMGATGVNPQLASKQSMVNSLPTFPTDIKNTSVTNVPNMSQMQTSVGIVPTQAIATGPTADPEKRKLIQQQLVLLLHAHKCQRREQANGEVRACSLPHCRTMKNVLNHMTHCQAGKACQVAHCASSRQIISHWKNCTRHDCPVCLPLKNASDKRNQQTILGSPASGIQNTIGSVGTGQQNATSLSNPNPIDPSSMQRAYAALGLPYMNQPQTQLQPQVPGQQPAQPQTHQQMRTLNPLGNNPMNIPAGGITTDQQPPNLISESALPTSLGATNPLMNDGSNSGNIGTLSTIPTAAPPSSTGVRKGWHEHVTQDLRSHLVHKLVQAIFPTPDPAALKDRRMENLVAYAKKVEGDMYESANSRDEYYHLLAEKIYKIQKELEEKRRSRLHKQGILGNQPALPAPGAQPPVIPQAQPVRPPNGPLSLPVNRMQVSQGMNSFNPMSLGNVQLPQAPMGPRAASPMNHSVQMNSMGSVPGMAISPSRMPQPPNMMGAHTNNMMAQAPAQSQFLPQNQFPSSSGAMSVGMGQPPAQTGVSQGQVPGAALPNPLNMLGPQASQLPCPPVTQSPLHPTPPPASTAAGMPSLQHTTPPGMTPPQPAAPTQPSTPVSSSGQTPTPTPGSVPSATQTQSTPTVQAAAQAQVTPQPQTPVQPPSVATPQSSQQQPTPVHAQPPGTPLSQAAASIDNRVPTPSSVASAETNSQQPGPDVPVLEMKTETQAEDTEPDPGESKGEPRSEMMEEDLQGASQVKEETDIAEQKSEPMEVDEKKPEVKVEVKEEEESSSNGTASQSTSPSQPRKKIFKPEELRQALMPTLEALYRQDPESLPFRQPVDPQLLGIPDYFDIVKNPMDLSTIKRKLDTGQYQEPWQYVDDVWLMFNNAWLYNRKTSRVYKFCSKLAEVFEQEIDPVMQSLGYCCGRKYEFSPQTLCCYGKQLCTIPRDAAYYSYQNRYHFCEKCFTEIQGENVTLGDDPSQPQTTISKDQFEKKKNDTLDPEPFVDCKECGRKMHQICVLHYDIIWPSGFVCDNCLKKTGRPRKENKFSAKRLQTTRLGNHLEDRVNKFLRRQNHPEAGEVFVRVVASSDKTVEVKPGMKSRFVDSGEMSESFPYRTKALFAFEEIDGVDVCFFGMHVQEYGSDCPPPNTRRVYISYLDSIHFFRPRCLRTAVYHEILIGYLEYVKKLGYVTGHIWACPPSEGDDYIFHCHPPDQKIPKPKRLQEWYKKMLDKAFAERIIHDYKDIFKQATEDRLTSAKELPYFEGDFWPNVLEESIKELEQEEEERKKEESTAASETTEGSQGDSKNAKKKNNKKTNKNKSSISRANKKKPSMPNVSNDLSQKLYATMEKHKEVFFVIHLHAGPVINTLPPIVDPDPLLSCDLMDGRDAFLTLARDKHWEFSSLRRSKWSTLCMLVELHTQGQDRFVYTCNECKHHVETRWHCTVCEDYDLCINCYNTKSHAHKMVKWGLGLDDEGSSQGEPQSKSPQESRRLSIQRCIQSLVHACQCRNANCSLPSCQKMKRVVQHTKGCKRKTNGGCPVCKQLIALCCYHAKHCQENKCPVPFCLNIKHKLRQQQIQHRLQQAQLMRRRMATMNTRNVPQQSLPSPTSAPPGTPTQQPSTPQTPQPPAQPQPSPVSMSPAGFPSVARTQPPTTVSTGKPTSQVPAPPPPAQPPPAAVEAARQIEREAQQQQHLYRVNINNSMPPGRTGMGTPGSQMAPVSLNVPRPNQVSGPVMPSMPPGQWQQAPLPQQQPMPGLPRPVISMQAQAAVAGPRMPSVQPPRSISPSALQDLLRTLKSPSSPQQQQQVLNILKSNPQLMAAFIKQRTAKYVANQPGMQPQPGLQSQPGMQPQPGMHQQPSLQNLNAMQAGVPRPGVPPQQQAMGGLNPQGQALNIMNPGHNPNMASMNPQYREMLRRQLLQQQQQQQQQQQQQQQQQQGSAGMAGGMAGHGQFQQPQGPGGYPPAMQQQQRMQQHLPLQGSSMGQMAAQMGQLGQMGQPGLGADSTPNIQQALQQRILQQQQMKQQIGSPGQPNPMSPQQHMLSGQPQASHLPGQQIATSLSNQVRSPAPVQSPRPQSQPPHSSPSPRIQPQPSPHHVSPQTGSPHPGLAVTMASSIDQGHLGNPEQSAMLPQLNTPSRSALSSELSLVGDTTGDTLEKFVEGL

SMILES: CCNC(=O)CC1N=C(C2CCCCC2)c2cc(OC)ccc2-c2cn(C)c(=O)cc21 (stereo not given)
- EC50 (MV4-11 [1]): 0.008 µM

SMILES: CCNC(=O)CC1N=C(c2c(F)cccc2F)c2cc(OC)ccc2-c2cn(C)c(=O)cc21 (stereo not given)
- EC50 (MV4-11 [1]): 0.013 µM
- IC50 [2]: < 0.0005 µM

SMILES: Cc1[nH]c(-c2cc(NS(C)(=O)=O)ccc2Oc2ccccc2)c2c1C(=O)CCC2
- inhibition in vivo at 100 mg/kg (MX1 [3]): 80%

SMILES: CC(=O)N1CC(n2cc(C3CC3)c3c2C(c2ccc(Cl)cc2)N(c2cc(C)c4nnn(C)c4n2)C3=O)C1 (stereo not given)
- IC50 [4]: < 0.011 µM
- GI50 (MV4-11 [5]): 0.0003 µM

SMILES: [2H]C([2H])([2H])c1nnn(C)c1-c1cnc2c3ccc(C(C)(C)O)cc3n([C@H](c3ccccc3)C3CCC(F)(F)CC3)c2c1
- IC50 [6]: < 0.005 µM
- inhibition in vivo at 1 mg/kg [7]: 93%

SMILES: CNC(=O)N1N=C(c2ccc(N3CC4(CCS4(=O)=O)C3)cc2)c2cc(-n3nc(C)cc3C)ccc2C[C@@H]1C
- IC50 (MV4-11 [1]): 0.08 µM

- IC50 [8]: 0.012 µM
SMILES: Cc1cc(-c2nc3ccc(N4CCOC[C@@H]4C)cc3n2[C@@H](C)c2ccccc2)cn(C)c1=O

- remaining at 0.5 h, 1 µM [9]: 35%
- remaining at 0.5 h, 1 µM [10]: 62%
SMILES: COc1cc2c(cc1-c1c(C)noc1C)ncc1nc(C3CCC(F)(F)CC3)n([C@H](C)COC(F)F)c12

SMILES: CCS(=O)(=O)Nc1ccc(Oc2ccc(F)cc2F)c(-c2cn(C)c(=O)c3[nH]c(C#CCOC)cc23)c1
- Ki [11]: 0.0016 µM
- EC50 (MX1 [12]): 0.048 µM

SMILES: Cc1noc(C)c1-c1cc(-c2c(C3CC3)n[nH]c2C2CC2)c2[nH]c(=O)[nH]c2c1
- CC50 (MT4): 0.0091 µM

SMILES: Cc1sc2c(c1C)C(c1ccc(Cl)cc1)=N[C@@H](CC(=O)NCCCCNC(=O)COc1cccc3c1C(=O)N(C1CCC(=O)NC1=O)C3=O)c1nnc(C)n1-2 (stereo not given in full)
- Activity (MV4-11 [13]): >80%

SMILES: CCS(=O)(=O)c1ccc2c(c1)-c1cn(C)c(=O)cc1OCCCCc1cc(Cl)ccc1O2
- EC50 (MX1 [14]): 0.0057 µM
- IC50 [15]: 0.00093 µM
- inhibition (INH) (Mus musculus): 83%

SMILES: Cc1nnn(C)c1-c1cnc2c3ccc(C(C)(C)O)c(F)c3n([C@H](c3ccccc3)C3CCOCC3)c2c1
- IC50 [6]: < 0.005 µM
- inhibition in vivo at 5 mg/kg (NCI-H187): 100%

- IC50 [16]: < 0.1 µM
- Ratio IC50 [17]: 100
SMILES: CC(=O)N1c2ccc(C#N)cc2[C@H](Nc2ncccc2F)[C@@H](C)[C@@H]1C1CC1

SMILES: CCS(=O)(=O)Nc1cc(-c2cn(C)c(=O)c3[nH]ccc23)c(Oc2ccc(F)cc2F)cc1CN1CCOCC1
- EC50 (MX1 [12]): 0.016 µM

SMILES: Cc1noc(C)c1-c1ccc2c(c1)C(c1ccsc1)(N1CCC[C@H](N)C1)C(=O)N2 (stereo not given in full)
- IC50 (MV4-11 [18]): 0.034 µM

SMILES: [2H]C([2H])([2H])c1nnn(C)c1-c1cnc2c3ccc(C(C)(C)O)c(F)c3n([C@H](c3ccccc3)C3CCOCC3)c2c1
- IC50 [6]: < 0.005 µM
- inhibition in vivo at 1 mg/kg [7]: 103%

SMILES: Cc1nn(C2CC2)c2c1[C@@H](c1ccc(Cl)cc1)N(c1cc(C)c3nnc(C)n3n1)C2=O
- IC50 [19]: < 0.011 µM
- IC50 (CREB-binding protein): 3.7 µM
- IC50 (MV4-11 [20]): 0.0034 µM

- IC50 [21]: 0.031 µM
SMILES: Cc1noc(C)c1-c1ccc2c(c1)C(c1ccccc1)N(CC1CCN(C)CC1)C(=O)N2 (stereo not given)

SMILES: Cc1cc(N2C(=O)c3c(c(CO)nn3C3CC3)[C@H]2c2ccc(Cl)cc2)cn2c(C)nnc12
- IC50 [19]: < 0.011 µM
- IC50 (CREB-binding protein): 1.4 µM
- IC50 (MV4-11 [20]): 0.0094 µM

- remaining at 0.5 h, 1 µM [9]: 3.7%
- remaining at 0.5 h, 1 µM [10]: 1.9%
SMILES: COc1cc2c(cc1-c1c(C)noc1C)ncc1nc(CN3CCOCC3)n([C@H](C)COC(F)F)c12

SMILES: Cc1noc(C)c1-c1ccc2c(c1)C(O)(c1ccccc1)C(=O)N2 (stereo not given)
- IC50 (MV4-11 [18]): 0.058 µM

SMILES: CCOc1cc(=O)n(C)cc1-c1cc(N(CC2CC2)S(=O)(=O)CC)ccc1Oc1ccc(F)cc1F
- EC50 (MX1 [14]): 0.233 µM

SMILES: COc1ncccc1-c1c(C2CC2)c2c(n1C)C(c1ccc(Cl)cc1)N(c1cc(C)c3nnc(C)n3c1)C2=O (stereo not given)
- IC50 [4]: < 0.011 µM
- GI50 (MV4-11 [5]): 0.003 µM
